Reference: publication PMC6219668 (Oncotarget, 2018)
Values joined by “and” are separate entries in the source; they are usually repeats but may differ in a detail not shown here. Identical values can stand only once.

Tests used:
CDK4 = biological target: T1, CDK4 (Homo sapiens, UniProt P11802); experiment: KINOMEscan binding assay; conditions: Supplementary Table 1A
T1 construct: purchased DiscoveRx (KINOMEscan)

A549 = experiment: cells; type: cell-based; conditions: Homo sapiens, A549, 72 h
A-375 = experiment: cells; type: cell-based; conditions: Homo sapiens, A-375, 72 h
NCI-H3122 = experiment: cells; type: cell-based; conditions: Homo sapiens, NCI-H3122, 72 h
SK-N-SH [1] = experiment: cells; type: cell-based; conditions: Homo sapiens, 72 h
HPAX0991 = type: in vivo; conditions: HPAX0991, Pancreatic, Rb present; 250 mg/kg qd
T-47d = experiment: cells; type: cell-based; conditions: Homo sapiens, T47D, 72 h
TE-14 [2] = experiment: cells; type: cell-based; conditions: TE-14, 72 h
LnCAP = experiment: cells; type: cell-based; conditions: Homo sapiens, 72 h
NCI-H460 = experiment: cells; type: cell-based; conditions: Homo sapiens, NCI-H460, 72 h
VCAP = experiment: cells; type: cell-based; conditions: Homo sapiens, 72 h
PC-14 = experiment: cells; type: cell-based; conditions: Homo sapiens, PC-14, 72 h
TE-8 = experiment: cells; type: cell-based; conditions: Homo sapiens, TE-8, 72 h
WBCs and ANC = experiment: Blood counts in JeKo-1 rat model; type: in vivo; conditions: all treatment groups compared with vehicle
Text: To further characterize the pharmacokinetic/pharmacodynamic (PK/PD) relationship and simultaneously compare antitumor effects with white blood cell (WBC) counts in host animals, we used the JeKo-1 xenograft model in nude rats. […]. We observed dose-proportional increases in both drug exposure and target inhibition (Supplementary Table 5). […]. This dose-proportional target inhibition correlated with dose-dependent antitumor efficacy in the same JeKo-1 xenograft model.

UACC-62 = experiment: cells; type: cell-based; conditions: Homo sapiens, UACC-62, 72 h
HPAX1199 = type: in vivo; conditions: HPAX1199, Pancreatic, Rb present; 250 mg/kg qd
NCI-H2228 [3] = experiment: cells; type: cell-based; conditions: Homo sapiens, NCI-H2228, 72 h
NCI-H1573 = experiment: cells; type: cell-based; conditions: Homo sapiens, NCI-H1573, 72 h
hs944T = experiment: cells; type: cell-based; conditions: 72 h
TE-5 = experiment: cells; type: cell-based; conditions: Homo sapiens, TE-5, 72 h
[4] = type: in vivo
SK-N-SH [5] = experiment: cells; type: cell-based; conditions: Homo sapiens, 72 h; remark: listed apart in the source
SK-MEL-28 = experiment: cells; type: cell-based; conditions: Homo sapiens, SK-MEL-28, 72 h
NB1 = experiment: cells; type: cell-based; conditions: Homo sapiens, NB1, 72 h
Maximum tolerated dosage = type: in vivo; conditions: mice, once daily
HCOX1290 = type: in vivo; conditions: HCOX1290, Colorectal, Rb present; 250 mg/kg qd
TE-14 [6] = experiment: cells; type: cell-based; conditions: TE-14, 72 h; remark: listed apart in the source
HBCx-12 = type: in vivo; conditions: HBCx-12, Breast, TNBC, Rb present; 125 mg/kg bid × 21
BT-483 = experiment: cells; type: cell-based; conditions: Homo sapiens, BT-483, 72 h
A2058 = experiment: cells; type: cell-based; conditions: Homo sapiens, A2058, 72 h
NCI-H1975 = experiment: cells; type: cell-based; conditions: Homo sapiens, NCI-H1975, read-out: Percent inhibition
MELJUSO = experiment: cells; type: cell-based; conditions: Homo sapiens, MEL-JUSO, 72 h
KYSE450 = experiment: cells; type: cell-based; conditions: Homo sapiens, KYSE-450; KYSE450, 72 h
in vivo = conditions: male, rat, po
MDA-MB-415 = experiment: cells; type: cell-based; conditions: Homo sapiens, MDA-MB-415, 72 h
CDK5/p25 = conditions: cited from earlier work
WM-115 = experiment: cells; type: cell-based; conditions: Homo sapiens, WM-115, 72 h
CDK9/cyclin T1 = conditions: cited from earlier work
NCI-H2228 [7] = experiment: cells; type: cell-based; conditions: Homo sapiens, NCI-H2228, 72 h; remark: listed apart in the source
Pfeiffer = experiment: cells; type: cell-based; conditions: Homo sapiens, DLBCL, dominant CDK6, read-out: IC50, mean ± SD
SEM cells = experiment: cells; type: cell-based; conditions: ALL, dominant CDK6, read-out: IC50, mean ± SD

T1 sequence (P11802 whole entry): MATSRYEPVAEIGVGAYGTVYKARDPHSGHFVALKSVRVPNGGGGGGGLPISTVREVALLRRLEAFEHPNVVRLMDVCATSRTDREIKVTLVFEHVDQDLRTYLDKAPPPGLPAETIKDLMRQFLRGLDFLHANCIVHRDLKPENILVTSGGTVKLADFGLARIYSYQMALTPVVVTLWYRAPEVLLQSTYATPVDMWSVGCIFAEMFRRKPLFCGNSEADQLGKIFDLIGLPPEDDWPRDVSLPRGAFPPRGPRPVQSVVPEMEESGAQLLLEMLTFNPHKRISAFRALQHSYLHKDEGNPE

With `CN(C)C(=O)c1cc2cnc(Nc3ccc(N4CCNCC4)cn3)nc2n1C1CCCC1` [Ribociclib, 7-cyclopentyl-2-(5-piperazin-1-yl-pyridin-2-ylamino)-7H-pyrrolo[2,3-d]pyrimidine-6-carboxylic acid dimethylamide] the “affinity for CDK4, lower than that observed for abemaciclib” value (CDK4) was roughly 10 fold, the IC50 (A549) was greater than 10 µM and the IC50 (A-375) was 2.68 µM. The IC50 (NCI-H3122) was 0.51 µM, the IC50 (SK-N-SH [1]) was 9 µM and the T/C (HPAX0991) was 11. For the same compound, the IC50 (T-47d) was 0.25 µM, the IC50 (TE-14 [2]) was greater than 10 µM and the IC50 (LnCAP) was 1 µM. For the same compound, the IC50 (NCI-H460) was 0.62 µM, the IC50 (VCAP) was greater than 10 µM and the IC50 (PC-14) was greater than 10 µM. The IC50 (TE-8) was greater than 10 µM, the absolute neutrophil counts (WBCs and ANC) was “reduced” and the “total WBC counts” value (WBCs and ANC) was “reduced”. For the same compound, the IC50 (UACC-62) was greater than 10 µM, the T/C (HPAX1199) was 18 and the IC50 (NCI-H2228 [3]) was greater than 10 µM. The IC50 (NCI-H1573) was 0.61 µM, the IC50 (hs944T) was greater than 10 µM and the IC50 (TE-5) was 2.39 µM. For the same compound, the body weight loss ([4]; 150 mg/kg) was “only minimal transient body weight loss”, the tolerability ([4]; all ribociclib doses, no significant body weight loss) was “well tolerated” and the IC50 (SK-N-SH [5]) was 0.27 µM. The IC50 (SK-MEL-28) was 0.98 µM, the IC50 (NB1) was 0.37 µM and the maximum tolerated dosage (Maximum tolerated dosage) was 250 mg/kg. It also gave a T/C (HCOX1290) of 22, an IC50 (TE-14 [6]) greater than 10 µM and a T/C (HBCx-12) of 33. For the same compound, the IC50 (BT-483) was greater than 10 µM, the IC50 (A2058) was greater than 10 µM and the inhibition at 0.08 µM (NCI-H1975) was 14%. For the same compound, the inhibition at 1.25 µM (NCI-H1975) was 42%, the inhibition at 5 µM (NCI-H1975) was 54% and the inhibition at 10 µM (NCI-H1975) was 61%. For the same compound, the inhibition at […] (NCI-H1975) was 20% and 28% and 37% and 49%, the IC50 (MELJUSO) was greater than 10 µM and the IC50 (KYSE450) was greater than 10 µM. For the same compound, the Cmax (in vivo; 10 mg/kg) was 0.11 µg/mL, the Cmax (in vivo; 75 mg/kg) was 1.74 µg/mL and the Cmax (in vivo; 150 mg/kg) was 1.68 µg/mL. For the same compound, the IC50 (MDA-MB-415) was 0.98 µM, the “activity against CDK5/p25” value (CDK5/p25) was “far less active” and the IC50 (WM-115) was greater than 10 µM. The “activity against CDK9/cyclin T1” value (CDK9/cyclin T1) was “far less active” and the IC50 (NCI-H2228 [7]) was greater than 10 µM.

Compound `CC(=O)c1c(C)c2cnc(Nc3ccc(N4CCNCC4)cn3)nc2n(C2CCCC2)c1=O` [Palbociclib, reference compound] has an IC50 (Pfeiffer) of 89 ± 32 µM and an IC50 (SEM cells) of 87 ± 28 µM.
